From publication PMC5666896, “Molecular Docking and Screening Studies of New Natural Sortase A Inhibitors” (International Journal of Molecular Sciences, 2017)
Values after ≈ are worked out from the molar mass of the structure shown. “Also recorded” adds a separate entry of the source.

Key:
in vivo = conditions: in vivo
Procedure: (§1) The Daphnia magna test was performed in 4 mL 12-tissue culture wells, using 10 daphnids/well, with each sample being tested in duplicate. […] All experiments were conducted in the dark, in a plant growth chamber (Sanyo MLR-351 H, San Diego, CA, USA) at 25 ± 1 °C [32, 33].
(§2) Statistical analysis of the inhibitory effect on SrtA and the Daphnia magna bioassay was performed using GraphPad Prism version 5.01 software (GraphPad Software, Inc., La Jolla, CA, USA). A student’s t-test (p < 0.05) was applied in order to analyze the results obtained from replicates. […] The inhibition (I %) and lethality percentage (L %) values were calculated and plotted against the logarithm of concentrations and the corresponding curves were calculated using the least squares fit method. […] Whenever the obtained results permitted, the upper and lower limits of the 95% confidence interval (95% CI) and the correlation coefficient (r^2) were calculated.

tested bacteria strains = test: Preliminary antibacterial screening by well diffusion test; format: cell-based; conditions: eight strains
Procedure: (§3) Eight food-related microorganisms were used to evaluate the antimicrobial properties, including the Gram-positive Staphylococcus aureus ATCC 6538, Staphylococcus aureus ATCC 25923, Staphylococcus epidermidis ATCC 12228, Enterococcus faecalis ATCC 29212, Bacillus cereus ATCC 11778, and the Gram-negative Escherichia coli ATCC 8739, Escherichia coli ATCC 35218, and Proteus mirabilis ATCC 29245. The antibacterial assays were performed by the well diffusion and broth microdilution method (ISO 20776-1) in order to determine MIC.
(§4) Test microorganisms were stored in freezing conditions and activated by cultivation in Nutrient broth at 37 °C for 24 h. Overnight cultures were used to obtain the inoculum by transferring an amount of cells from the broth to a test tube containing 5 mL of demineralized water until a turbidity of 1–2 × 10^8 colony-forming unit (CFU)/mL was achieved, equivalent to 0.5 McFarland standard. Dilutions of the inoculum were cultured on nutrient agar supplemented with 5% sheep blood to verify the absence of contamination and the validity of the inoculum.
Compounds were investigated by the agar well diffusion method. The plates containing Mueller Hinton agar medium were spread with 0.1 mL of the bacterial inoculum. […] Microbial inhibition was visually appreciated as the diameter of the inhibition zones surrounding the well and recorded in mm. […]

E. faecalis ATCC 29212 = test: Well diffusion test; format: cell-based; conditions: Enterococcus faecalis, ATCC29212; well 6 mm; gentamicin 10 μg, emodin 13.5 μg, rhein 14.2 μg; 37 °C, 24 h; read-out: Diameters of inhibition zone (mm), including diameter of well
Procedure: as §3, §4
(§5) Compounds were investigated by the agar well diffusion method. The plates containing Mueller Hinton agar medium were spread with 0.1 mL of the bacterial inoculum. The wells (6 mm diameter) were filled with 50 μL of the sample. The plates were incubated at 37 °C for 24 h. DMSO was used as a negative control and one standard antibiotic (gentamicin, 10 μg) as a positive control. Microbial inhibition was visually appreciated as the diameter of the inhibition zones surrounding the well and recorded in mm. All tests were run in triplicate for each combination of extract and microbial strain [26].

S. aureus ATCC 6538 = test: Well diffusion test; format: cell-based; conditions: Staphylococcus aureus, ATCC6538; well 6 mm; gentamicin 10 μg, emodin 13.5 μg, rhein 14.2 μg; 37 °C, 24 h; read-out: Diameters of inhibition zone (mm), including diameter of well
Procedure: as §3, §4, §5

E. coli ATCC 8739 = test: Well diffusion test; format: cell-based; conditions: Escherichia coli, ATCC8739; well 6 mm; gentamicin 10 μg, emodin 13.5 μg, rhein 14.2 μg; 37 °C, 24 h; read-out: Diameters of inhibition zone (mm), including diameter of well
Procedure: as §3, §4, §5

P. mirabilis ATCC 29245 = test: Well diffusion test; format: cell-based; conditions: Proteus mirabilis, ATCC29245; well 6 mm; gentamicin 10 μg, emodin 13.5 μg, rhein 14.2 μg; 37 °C, 24 h; read-out: Diameters of inhibition zone (mm), including diameter of well
Procedure: as §3, §4, §5

[1] = tested on: S. epidermidis ATCC 12228; test: Well diffusion test; format: cell-based; conditions: Staphylococcus epidermidis, ATCC12228; well 6 mm; gentamicin 10 μg, emodin 13.5 μg, rhein 14.2 μg; 37 °C, 24 h; read-out: Diameters of inhibition zone (mm), including diameter of well
Procedure: as §3, §4, §5

E. coli ATCC 35218 = test: Well diffusion test; format: cell-based; conditions: Escherichia coli, ATCC35218; well 6 mm; gentamicin 10 μg, emodin 13.5 μg, rhein 14.2 μg; 37 °C, 24 h; read-out: Diameters of inhibition zone (mm), including diameter of well
Procedure: as §3, §4, §5

S. aureus ATCC 25923 [2] = test: Well diffusion test; format: cell-based; conditions: Staphylococcus aureus, ATCC25923; well 6 mm; gentamicin 10 μg, emodin 13.5 μg, rhein 14.2 μg; 37 °C, 24 h; read-out: Diameters of inhibition zone (mm), including diameter of well
Procedure: as §3, §4, §5

B. cereus ATCC 11778 [3] = test: Well diffusion test; format: cell-based; conditions: Bacillus cereus, ATCC11778; well 6 mm; gentamicin 10 μg, emodin 13.5 μg, rhein 14.2 μg; 37 °C, 24 h; read-out: Diameters of inhibition zone (mm), including diameter of well
Procedure: as §3, §4, §5

SrtA [4] = target: T1, SrtA (Staphylococcus aureus, UniProt Q2FV99); test: Sortase A activity assay (FRET, SensoLyte 520 kit); format: biochemical, S. aureus
T1 construct: purchased Anaspec, San Jose, CA, USA
Procedure: The inhibitory activity of all of the compounds was determined by quantifying the increase in fluorescence intensity upon a cleavage 5-FAM/QXL® FRET substrate using a SensoLyte® 520 Sortase A Activity Assay Kit (Anaspec, San Jose, CA, USA). According to kit protocol, reactions were performed in a 96-well plate, with each well containing 10 μL test compound solution, 40 μL enzyme solution, and 50 μL sortase substrate solution. All compounds were dissolved in dimethyl sulfoxide (DMSO) and diluted with sterilized distilled water. The final concentration of DMSO was 1%. Each compound diluted in buffer to the tested concentration and was checked for intrinsic fluorescence. According to the kit protocol, we used the enzyme without the test compound as a control, a 1% DMSO control, and a substrate control. We used the kit inhibitor, 4-hydroxymercuribenzoic acid (HMB), as the positive control. Reactions were carried out for 1 h at room temperature and analyzed fluorometrically (SpectraMAX Gemini XS, CA, USA) at Ex/Em = 490 nm/520 nm. All reported values are the means of triplicate assays.

[5] = tested on: S. epidermidis ATCC 12228; test: Broth microdilution MIC; format: cell-based; conditions: Staphylococcus epidermidis, ATCC12228; 37 °C, 24 h
Procedure: (§6) Eight food-related microorganisms were used to evaluate the antimicrobial properties, including the Gram-positive Staphylococcus aureus ATCC 6538, Staphylococcus aureus ATCC 25923, Staphylococcus epidermidis ATCC 12228, Enterococcus faecalis ATCC 29212, Bacillus cereus ATCC 11778, and the Gram-negative Escherichia coli ATCC 8739, Escherichia coli ATCC 35218, and Proteus mirabilis ATCC 29245. The antibacterial assays were performed by the well diffusion and broth microdilution method (ISO 20776-1) in order to determine MIC. Test microorganisms were stored in freezing conditions and activated by cultivation in Nutrient broth at 37 °C for 24 h. […] Dilutions of the inoculum were cultured on nutrient agar supplemented with 5% sheep blood to verify the absence of contamination and the validity of the inoculum. Bacterial strains susceptible to compounds in the well diffusion assay were studied for their MIC values using 96-well microtiter plates. The experiments were conducted using the reference method for testing the in vitro activity of the antimicrobial agents where MIC is the lowest concentration of an antimicrobial agent that, under defined in vitro conditions, prevents the appearance of visible growth of the microorganism after its incubation overnight. A total of 250 μL of the bacterial suspension in sterile demineralized water was added to 11 mL Mueller-Hinton broth (MBH) to a concentration of 5 × 10^7 cells/mL. Compounds to be investigated were dissolved in MBH containing bacterial inoculum (5 × 10^4 CFU/well) to achieve the two-fold serial concentrations ranging between […] [30]. The microplates were covered with an adhesive seal and incubated at 37 °C for 24 h. DMSO combined with MHB was used as the negative control for each bacterial strain. The plates were visually read under normal laboratory lighting using a manual mirror viewer. Two replicates were conducted for each compound and each bacterial strain.

S. aureus ATCC 25923 [6] = test: Broth microdilution MIC; format: cell-based; conditions: Staphylococcus aureus, ATCC25923; 37 °C, 24 h
Procedure: as §6

B. cereus ATCC 11778 [7] = test: Broth microdilution MIC; format: cell-based; conditions: Bacillus cereus, ATCC11778; 37 °C, 24 h
Procedure: as §6

Daphnia magna = test: in vivo; conditions: after 48 h; tested 0.5 to 100 μM
Procedure: as §1, §2

[8] = Solubility in water (observation during FRET testing)
SrtA [9] = target: T1, SrtA; conditions: cited from earlier work

T1 sequence (Q2FV99 whole entry): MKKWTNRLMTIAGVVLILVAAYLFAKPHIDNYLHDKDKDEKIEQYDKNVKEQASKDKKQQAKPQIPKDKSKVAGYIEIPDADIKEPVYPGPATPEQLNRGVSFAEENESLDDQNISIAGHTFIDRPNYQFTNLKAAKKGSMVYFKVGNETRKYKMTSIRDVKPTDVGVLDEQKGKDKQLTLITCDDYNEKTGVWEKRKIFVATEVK

Q: Which results are given for Cc1cc(O)c2c(c1)C(=O)c1cc(O)cc(O)c1C2=O [Emodin]?
A: LC50 at 24 h (in vivo): 34.7 µM; LC50 at 48 h (in vivo): 24.2 µM; Antimicrobial effect (result in words) (tested bacteria strains): observable antimicrobial effect; zone of inhibition at 13.5 µg/disc (E. faecalis ATCC 29212): 6 mm; zone of inhibition at 13.5 µg/disc (S. aureus ATCC 6538): 6 mm; zone of inhibition at 13.5 µg/disc (E. coli ATCC 8739): 6 mm; zone of inhibition at 13.5 µg/disc (P. mirabilis ATCC 29245): 6 mm; zone of inhibition at 13.5 µg/disc [1]: 14 mm; zone of inhibition at 13.5 µg/disc (E. coli ATCC 35218): 6 mm; zone of inhibition at 13.5 µg/disc (S. aureus ATCC 25923 [2]): 20 mm; zone of inhibition at 13.5 µg/disc (B. cereus ATCC 11778 [3]): 12 mm; SrtA inhibition (result in words) (SrtA [4]): statistically significant SrtA inhibition; inhibition at 100 µM (SrtA [4]): 10.1%; MIC [5]: 8 mg/L (≈ 29.6 µM); MIC (S. aureus ATCC 25923 [6]): 8 mg/L (≈ 29.6 µM); MIC (B. cereus ATCC 11778 [7]): 16 mg/L (≈ 59.2 µM)

Q: Which results are given for CNC(C)C1CCC(N)C(OC2C(N)CC(N)C(OC3OCC(C)(O)C(NC)C3O)C2O)O1 (centres unmarked) [Gentamicin, reference compound]?
A: zone of inhibition at 10 µg/disc (E. faecalis ATCC 29212): 12 mm; zone of inhibition at 10 µg/disc (S. aureus ATCC 6538): 17 mm; zone of inhibition at 10 µg/disc (E. coli ATCC 8739): 21 mm; zone of inhibition at 10 µg/disc (P. mirabilis ATCC 29245): 20 mm; zone of inhibition at 10 µg/disc [1]: 29 mm; zone of inhibition at 10 µg/disc (E. coli ATCC 35218): 20 mm; zone of inhibition at 10 µg/disc (S. aureus ATCC 25923 [2]): 21 mm; zone of inhibition at 10 µg/disc (B. cereus ATCC 11778 [3]): 24 mm; MIC [5]: 2 mg/L (≈ 4.19 µM); MIC (S. aureus ATCC 25923 [6]): 2 mg/L (≈ 4.19 µM); MIC (B. cereus ATCC 11778 [7]): 4 mg/L (≈ 8.38 µM)

Q: For O=c1c(O)c(-c2ccc(O)c(O)c2)oc2cc(O)cc(O)c12 [Quercetin], which Maximum lethality (Daphnia magna) is on record?
A: ≤ 30%

Q: And the “Solubility in water (result in words)” value [8]?
A: low solubility in water; also recorded: very low solubility in water

Q: What about the “Inhibition of SrtA enzymatic activity (result in words)” value (SrtA [9]) of the same compound?
A: proven to inhibit SrtA enzymatic activity

Q: What about the “SrtA inhibition (result in words)” value (SrtA [4]) of the same compound?
A: statistically significant SrtA inhibition

Q: What about the inhibition at 10 µM (SrtA [4]) of the same compound?
A: 8.55%

Q: Which “Antimicrobial effect (result in words)” value (tested bacteria strains) does the source give for O=C(O)c1cc(O)c2c(c1)C(=O)c1cccc(O)c1C2=O [Rhein] here?
A: observable antimicrobial effect

Q: What about the zone of inhibition at 14.2 µg/disc (E. faecalis ATCC 29212) of the same compound?
A: 6 mm

Q: And the zone of inhibition at 14.2 µg/disc (S. aureus ATCC 6538)?
A: 6 mm

Q: What about the zone of inhibition at 14.2 µg/disc (E. coli ATCC 8739) of the same compound?
A: 6 mm

Q: What about the zone of inhibition at 14.2 µg/disc (P. mirabilis ATCC 29245) of the same compound?
A: 6 mm

Q: What about the zone of inhibition at 14.2 µg/disc [1] of the same compound?
A: 30 mm

Q: What about the zone of inhibition at 14.2 µg/disc (E. coli ATCC 35218) of the same compound?
A: 6 mm

Q: What about the zone of inhibition at 14.2 µg/disc (S. aureus ATCC 25923 [2]) of the same compound?
A: 12 mm

Q: What about the zone of inhibition at 14.2 µg/disc (B. cereus ATCC 11778 [3]) of the same compound?
A: 15 mm

Q: And the “Solubility in water (result in words)” value [8]?
A: low solubility in water

Q: What about the “SrtA inhibition (result in words)” value (SrtA [4]) of the same compound?
A: statistically significant SrtA inhibition

Q: What about the inhibition at 10 µM (SrtA [4]) of the same compound?
A: 7.01%

Q: And the MIC [5]?
A: 16 mg/L (≈ 56.3 µM)

Q: And the MIC (S. aureus ATCC 25923 [6])?
A: 64 mg/L (≈ 225 µM)

Q: And the MIC (B. cereus ATCC 11778 [7])?
A: 32 mg/L (≈ 113 µM)
